# From PMC10620772, “Design, synthesis, and biological evaluation of new pyrimidine-5-carbonitrile derivatives as novel anti-cancer, dual EGFR^WT/COX-2 inhibitors with docking studies” (RSC Advances, 2023)
# Columns and labels:
# [1] = tested on: KM12; assay: NCI60 antitumor screening; assay type: cell-based, human
# [2] = tested on: MDA-MB-435; assay: NCI60 antitumor screening; assay type: cell-based, human
# [3] = tested on: HT29; assay: NCI60 antitumor screening; assay type: cell-based, human
# [4] = biological target: T1, EGFR^WT (Homo sapiens, UniProt P00533); assay: In vitro EGFR^WT inhibitory assay (BPS Bioscience kinase kit); assay type: biochemical; details: means ± SD of three experiments
# T1 construct: purchased BPS Bioscience 40 321
# Protocol: (1) Prepare the mixture of N wells × (kinase assay buffer 6 μl, ATP1 μl, PTK substrate 1 μl and water 17 μl). to every well pipette the 25 μl. […] On the contrary, add 5 μl of inhibitor buffer to control and plank wells. (3) Pipette 20 μl of EGFR^WT to test and control wells, on the blank wells pipette 20 μl kinase assay buffer. Then incubate at R.T for 40 min. (4) end the incubation after 40 min by adding to every well 50 μl of Kinase-Glo Max reagent, and incubate 15 min. By measuring the ATP quantity after kinase reaction, the activity of kinase could be detected. (5) use microplate reader to measure the luminescence.[51]
# [5] = tested on: TK-10; assay: NCI60 antitumor screening; assay type: cell-based, human
# [6] = tested on: UACC-62; assay: NCI60 antitumor screening; assay type: cell-based, human
# [7] = tested on: EKVX; assay: NCI60 antitumor screening; assay type: cell-based, human
# [8] = tested on: HCT-15; assay: NCI60 antitumor screening; assay type: cell-based, human
# [9] = tested on: M14; assay: NCI60 antitumor screening; assay type: cell-based, human
# [10] = tested on: RXF 393; assay: NCI60 antitumor screening; assay type: cell-based, human
# [11] = tested on: MDA-MB-231/ATCC; assay: NCI60 antitumor screening; assay type: cell-based, human; details: Homo sapiens; 10 μM single dose; MDA-MB-231/ATCC (breast cancer); read-out: growth inhibition percent (GI%)
# [12] = tested on: T-47D; assay: NCI60 antitumor screening; assay type: cell-based, human
# [13] = tested on: IGROV1; assay: NCI60 antitumor screening; assay type: cell-based, human
# [14] = tested on: BT-549; assay: NCI60 antitumor screening; assay type: cell-based, human
# [15] = tested on: NCI-H226; assay: NCI60 antitumor screening; assay type: cell-based, human; details: Homo sapiens, NCI-H226, five-dose
# T1 sequence (P00533 25-1210): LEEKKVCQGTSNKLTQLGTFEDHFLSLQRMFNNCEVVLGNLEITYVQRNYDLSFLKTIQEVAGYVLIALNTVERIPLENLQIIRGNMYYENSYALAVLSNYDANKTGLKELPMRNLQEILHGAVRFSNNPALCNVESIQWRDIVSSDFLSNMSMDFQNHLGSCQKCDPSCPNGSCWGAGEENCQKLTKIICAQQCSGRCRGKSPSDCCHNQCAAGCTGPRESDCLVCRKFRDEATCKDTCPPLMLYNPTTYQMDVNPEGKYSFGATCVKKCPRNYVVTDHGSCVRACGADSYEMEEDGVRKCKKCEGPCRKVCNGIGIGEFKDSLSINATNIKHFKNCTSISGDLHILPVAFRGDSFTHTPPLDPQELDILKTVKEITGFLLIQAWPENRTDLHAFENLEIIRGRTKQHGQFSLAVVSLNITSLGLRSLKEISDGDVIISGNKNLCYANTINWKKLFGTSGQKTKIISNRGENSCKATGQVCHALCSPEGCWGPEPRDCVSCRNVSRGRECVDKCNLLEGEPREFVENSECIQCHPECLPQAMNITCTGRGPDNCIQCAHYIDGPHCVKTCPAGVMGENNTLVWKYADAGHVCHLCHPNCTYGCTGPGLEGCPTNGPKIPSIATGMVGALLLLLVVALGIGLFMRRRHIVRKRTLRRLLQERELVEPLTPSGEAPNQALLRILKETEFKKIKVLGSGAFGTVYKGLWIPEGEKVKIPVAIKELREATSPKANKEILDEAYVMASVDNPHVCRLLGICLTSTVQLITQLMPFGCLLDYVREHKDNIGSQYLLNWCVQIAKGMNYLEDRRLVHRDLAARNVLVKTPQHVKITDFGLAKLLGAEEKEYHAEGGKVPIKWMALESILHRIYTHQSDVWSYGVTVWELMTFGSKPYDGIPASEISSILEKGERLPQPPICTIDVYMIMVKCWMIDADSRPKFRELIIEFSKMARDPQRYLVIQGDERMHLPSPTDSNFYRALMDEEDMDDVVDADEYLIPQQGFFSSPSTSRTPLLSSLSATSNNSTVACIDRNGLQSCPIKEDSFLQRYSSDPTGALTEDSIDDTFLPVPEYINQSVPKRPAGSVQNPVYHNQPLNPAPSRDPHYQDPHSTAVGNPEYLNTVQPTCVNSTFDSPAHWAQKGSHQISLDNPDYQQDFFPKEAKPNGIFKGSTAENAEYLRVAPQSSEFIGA
compound,measurement,setting,value
"N#Cc1c(-c2ccc(F)cc2)nc(SCc2ccccc2)nc1N1CCNCC1 [4e, 2-(Benzylthio)-4-(4-fluorophenyl)-6-(piperazin-1-yl) pyrimidine-5-carbonitrile]",GI50,"[1]; Homo sapiens, KM12, five-dose",17.1 µM
same,CC50,"[1]; Homo sapiens, KM12, five-dose, read-out: LC50 (the source's name)",63.1 µM
same,inhibition at 10 µM,"[1]; Homo sapiens, 10 μM single dose, KM12 (colon cancer), read-out: growth inhibition percent (GI%)",> 100%
same,TGI,[1]; five-dose,32.80 µM
same,GI50,"[2]; Homo sapiens, MDA-MB-435, five-dose",16.9 µM
same,CC50,"[2]; Homo sapiens, MDA-MB-435, five-dose, read-out: LC50 (the source's name)",58.8 µM
same,inhibition at 10 µM,"[2]; Homo sapiens, 10 μM single dose, MDA-MB-435 (melanoma), read-out: growth inhibition percent (GI%)",> 100%
same,TGI,[2]; five-dose,31.50 µM
same,inhibition at 10 µM,"[3]; Homo sapiens, HT-29, 10 μM single dose, HT29 (colon cancer), read-out: growth inhibition percent (GI%)",> 100%
same,GI50,"[3]; Homo sapiens, HT-29, five-dose",3.3 µM
same,CC50,"[3]; Homo sapiens, HT-29, five-dose, read-out: LC50 (the source's name)",36.6 µM
same,TGI,[3]; five-dose,10.50 µM
same,IC50,[4],0.096 ± 0.004 µM
same,GI50,"[5]; Homo sapiens, TK-10, five-dose",14.5 µM
same,LC50,"[5]; Homo sapiens, TK-10, five-dose",55.5 µM
same,inhibition at 10 µM,"[5]; Homo sapiens, 10 μM single dose, TK-10 (renal cancer), read-out: growth inhibition percent (GI%)",> 100%
same,TGI,[5]; five-dose,28.40 µM
same,GI50,"[6]; Homo sapiens, UACC-62, five-dose",14.4 µM
same,CC50,"[6]; Homo sapiens, UACC-62, five-dose, read-out: LC50 (the source's name)",55 µM
same,inhibition at 10 µM,"[6]; Homo sapiens, 10 μM single dose, UACC-62 (melanoma), read-out: growth inhibition percent (GI%)",> 100%
same,TGI,[6]; five-dose,28.20 µM
same,GI50,"[7]; Homo sapiens, EKVX, five-dose",12 µM
same,LC50,"[7]; Homo sapiens, EKVX, five-dose",51 µM
same,inhibition at 10 µM,"[7]; Homo sapiens, 10 μM single dose, EKVX (non-small cell lung cancer), read-out: growth inhibition percent (GI%)",> 100%
same,TGI,[7]; five-dose,24.80 µM
same,GI50,"[8]; Homo sapiens, HCT-15, five-dose",5.05 µM
same,CC50,"[8]; Homo sapiens, HCT-15, five-dose, read-out: LC50 (the source's name)",43.8 µM
same,inhibition at 10 µM,"[8]; Homo sapiens, 10 μM single dose, HCT-15 (colon cancer), read-out: growth inhibition percent (GI%)",> 100%
same,TGI,[8]; five-dose,17.50 µM
same,GI50,"[9]; Homo sapiens, M14, five-dose",12 µM
same,CC50,"[9]; Homo sapiens, M14, five-dose, read-out: LC50 (the source's name)",51.4 µM
same,inhibition at 10 µM,"[9]; Homo sapiens, 10 μM single dose, M14 (melanoma), read-out: growth inhibition percent (GI%)",> 100%
same,TGI,[9]; five-dose,24.80 µM
same,GI50,"[10]; Homo sapiens, RXF 393, five-dose",3.14 µM
same,CC50,"[10]; Homo sapiens, RXF 393, five-dose, read-out: LC50 (the source's name)",44.2 µM
same,inhibition at 10 µM,"[10]; Homo sapiens, 10 μM single dose, RXF 393 (renal cancer), read-out: growth inhibition percent (GI%)",> 100%
same,TGI,[10]; five-dose,14.80 µM
same,inhibition at 10 µM,[11],> 100%
same,inhibition at 10 µM,"[12]; Homo sapiens, T47D, 10 μM single dose, T-47D (breast cancer), read-out: growth inhibition percent (GI%)",> 100%
same,GI50,"[12]; Homo sapiens, T47D, five-dose",10.1 µM
same,CC50,"[12]; Homo sapiens, T47D, five-dose, read-out: LC50 (the source's name)",61 µM
same,TGI,[12]; five-dose,24.80 µM
same,inhibition at 10 µM,"[13]; Homo sapiens, IGROV-1, 10 μM single dose, IGROV1 (ovarian cancer), read-out: growth inhibition percent (GI%)",> 100%
same,GI50,"[13]; Homo sapiens, IGROV-1, five-dose",14.7 µM
same,CC50,"[13]; Homo sapiens, IGROV-1, five-dose, read-out: LC50 (the source's name)",56.7 µM
same,TGI,[13]; five-dose,28.90 µM
same,GI50,"[14]; Homo sapiens, BT-549, five-dose",13 µM
same,CC50,"[14]; Homo sapiens, BT-549, five-dose, read-out: LC50 (the source's name)",53.6 µM
same,inhibition at 10 µM,"[14]; Homo sapiens, 10 μM single dose, BT-549 (breast cancer), read-out: growth inhibition percent (GI%)",> 100%
same,TGI,[14]; five-dose,26.40 µM
same,GI50,[15],13.8 µM
same,CC50,[15]; read-out: LC50 (the source's name),81.3 µM
